Tests used:
[1] = tested on: J774.2; assay: Compound was tested for cytotoxicity against J774.2 cells, concentration required to inhibit cell division by 50% after 72 hr incubation; type: functional; details: Mus musculus, J774.2, 72 h; read-out: ED50 (the source's name)
[2] = Activity in calf brain microtubule protein assembly assay.; type: functional, Bos taurus
[3] = tested on: J774; assay: In vitro cytotoxicity against J774.2 cells after 72 hr incubation.; type: functional; details: Mus musculus, J774, 72 h; read-out: ED50 (the source's name)

SMILES	EC50 [1]	Assembly [2]	EC50 [3]
CCCCCC(=O)NC[C@@H](O)C(=O)O[C@H]1C[C@@]2(O)[C@@H](OC(=O)c3ccccc3)C3[C@](C)(C(=O)[C@H](OC(C)=O)C(=C1C)C2(C)C)[C@@H](O)C[C@H]1OC[C@@]31OC(C)=O (some centres not stated)	26 µM	34%	–
CC(=O)O[C@H]1C(=O)[C@@]2(C)C([C@H](OC(=O)c3ccccc3)[C@]3(O)C[C@H](OC(=O)[C@H](O)CNC(=O)c4ccc(N=[N+]=[N-])cc4)C(C)=C1C3(C)C)[C@]1(OC(C)=O)CO[C@@H]1C[C@@H]2O (some centres not stated)	–	25%	20000 nM
CC(=O)O[C@H]1C(=O)[C@@]2(C)C([C@H](OC(=O)c3ccccc3)[C@]3(O)C[C@H](OC(=O)[C@H](O)CNC(=O)OC(C)(C)C)C(C)=C1C3(C)C)[C@]1(OC(C)=O)CO[C@@H]1C[C@@H]2O (some centres not stated)	–	51%	2000 nM
CC(=O)O[C@H]1C(=O)[C@@]2(C)C([C@H](OC(=O)c3ccccc3)[C@]3(O)C[C@H](OC(=O)[C@H](O)[C@@H](NC(=O)OCc4ccccc4)c4ccccc4)C(C)=C1C3(C)C)[C@]1(OC(C)=O)CO[C@@H]1C[C@@H]2O (some centres not stated)	–	94%	190 nM
CC(=O)O[C@H]1C(=O)[C@@]2(C)C([C@H](OC(=O)c3ccccc3)[C@]3(O)C[C@H](OC(=O)[C@H](O)[C@@H](NC(=O)c4ccccc4O)c4ccccc4)C(C)=C1C3(C)C)[C@]1(OC(C)=O)CO[C@@H]1C[C@@H]2O (some centres not stated)	–	93%	560 nM
CC(=O)O[C@H]1C(=O)[C@@]2(C)C([C@H](OC(=O)c3ccccc3)[C@]3(O)C[C@H](OC(=O)[C@H](O)CNC(=O)OCc4ccccc4)C(C)=C1C3(C)C)[C@]1(OC(C)=O)CO[C@@H]1C[C@@H]2O (some centres not stated)	–	20%	16000 nM
CC(=O)O[C@H]1C(=O)[C@@]2(C)C([C@H](OC(=O)c3ccccc3)[C@]3(O)C[C@H](OC(=O)[C@H](O)CNC(=O)c4ccc(C(F)(F)F)cc4)C(C)=C1C3(C)C)[C@]1(OC(C)=O)CO[C@@H]1C[C@@H]2O (some centres not stated)	–	20%	23000 nM
CC(=O)O[C@H]1C(=O)[C@@]2(C)C([C@H](OC(=O)c3ccccc3)[C@]3(O)C[C@H](OC(=O)[C@H](O)CNC(=O)c4ccccc4)C(C)=C1C3(C)C)[C@]1(OC(C)=O)CO[C@@H]1C[C@@H]2O (some centres not stated)	–	60%	20000 nM
CC(=O)O[C@H]1C(=O)[C@@]2(C)C([C@H](OC(=O)c3ccccc3)[C@]3(O)C[C@H](OC(=O)[C@H](O)CNC(=O)C(C)(C)C)C(C)=C1C3(C)C)[C@]1(OC(C)=O)CO[C@@H]1C[C@@H]2O (some centres not stated)	–	28%	40000 nM
CC(=O)O[C@H]1C(=O)[C@@]2(C)C([C@H](OC(=O)c3ccccc3)[C@]3(O)C[C@H](OC(=O)[C@H](O)[C@@H](NC(=O)c4ccc(C(=O)c5ccccc5)cc4)c4ccccc4)C(C)=C1C3(C)C)[C@]1(OC(C)=O)CO[C@@H]1C[C@@H]2O (some centres not stated)	–	39%	1500 nM
CC(=O)O[C@@]12CO[C@@H]1C[C@H](O)[C@@]1(C)C(=O)[C@H](O)C3=C(C)[C@@H](OC(=O)[C@H](O)[C@@H](NC(=O)OC(C)(C)C)c4ccccc4)C[C@@](O)([C@@H](OC(=O)c4ccccc4)[C@H]21)C3(C)C.O.O.O [DOCETAXEL]	–	105%	50 nM
CC(=O)O[C@H]1C(=O)[C@@]2(C)C([C@H](OC(=O)c3ccccc3)[C@]3(O)C[C@H](OC(=O)[C@H](O)[C@@H](NC(=O)c4ccc(C(C)=O)cc4)c4ccccc4)C(C)=C1C3(C)C)[C@]1(OC(C)=O)CO[C@@H]1C[C@@H]2O (some centres not stated)	–	84%	1600 nM
CC(=O)O[C@H]1C(=O)[C@@]2(C)C([C@H](OC(=O)c3ccccc3)[C@]3(O)C[C@H](OC(=O)[C@H](O)[C@@H](NC(=O)c4ccc(C(F)(F)F)cc4)c4ccccc4)C(C)=C1C3(C)C)[C@]1(OC(C)=O)CO[C@@H]1C[C@@H]2O (some centres not stated)	–	80%	900 nM
Nc1nc2c(ncn2[C@@H]2O[C@H](COP(=O)(O)OP(=O)(O)OP(=O)(O)O)[C@@H](O)[C@H]2O)c(=O)[nH]1 [GUANOSINE TRIPHOSPHATE]	–	70%	–
CC(=O)O[C@H]1C(=O)[C@@]2(C)C([C@H](OC(=O)c3ccccc3)[C@]3(O)C[C@H](OC(=O)[C@H](O)[C@@H](NC(=O)c4ccc(N=[N+]=[N-])cc4)c4ccccc4)C(C)=C1C3(C)C)[C@]1(OC(C)=O)CO[C@@H]1C[C@@H]2O (some centres not stated)	–	90%	280 nM
CC(=O)O[C@H]1C(=O)[C@@]2(C)C([C@H](OC(=O)c3ccccc3)[C@]3(O)C[C@H](OC(=O)[C@H](O)CNC(=O)c4ccc5ccccc5c4)C(C)=C1C3(C)C)[C@]1(OC(C)=O)CO[C@@H]1C[C@@H]2O (some centres not stated)	26 µM	28%	–
CC(=O)O[C@H]1C(=O)[C@@]2(C)[C@H]([C@H](OC(=O)c3ccccc3)[C@]3(O)C[C@H](OC(=O)[C@H](O)[C@@H](NC(=O)c4ccccc4)c4ccccc4)C(C)=C1C3(C)C)[C@]1(OC(C)=O)CO[C@@H]1C[C@@H]2O [PACLITAXEL]	–	100%	90 nM
CC(=O)O[C@H]1C(=O)[C@@]2(C)C([C@H](OC(=O)c3ccccc3)[C@]3(O)C[C@H](OC(=O)[C@H](O)CNC(=O)C45CC6CC(CC(C6)C4)C5)C(C)=C1C3(C)C)[C@]1(OC(C)=O)CO[C@@H]1C[C@@H]2O (some centres not stated)	–	24%	11000 nM
CC(=O)O[C@H]1C(=O)[C@@]2(C)C([C@H](OC(=O)c3ccccc3)[C@]3(O)C[C@H](OC(=O)[C@H](O)CNC(=O)C4CCCCC4)C(C)=C1C3(C)C)[C@]1(OC(C)=O)CO[C@@H]1C[C@@H]2O (some centres not stated)	–	33%	16000 nM

— ChEMBL document CHEMBL1149942, “Characterization of the taxol structure-activity profile for the locus of the A-ring side chain” (1994)
